Assay results as given in ChEMBL document CHEMBL1126840, “Steroidal affinity labels of the estrogen receptor. 1. 17 alpha-(Bromoacetoxy)alkyl/alkynylestradiols” (J Med Chem, 1993).

Legend:
[1] = target: T1, Estrogen receptor (Ovis aries) (UniProt P49885+Q9TU15)
[2] = target: T1, Estrogen receptor (Ovis aries); remark: listed apart in the source
[3] = target: T1, Estrogen receptor (Ovis aries); remark: listed apart in the source

RAC app [1] | RAC app [2] | RAC app [3] | Compound
0.024 | 1.1 | 0.28 | C[C@]12CC[C@@H]3c4ccc(O)cc4CC[C@H]3[C@@H]1CC[C@@]2(O)CCCO
0.24 | 2.4 | 1.5 | C[C@]12CC[C@@H]3c4ccc(O)cc4CC[C@H]3[C@@H]1CC[C@@]2(O)C#CCCCCCCOC(=O)CBr
0.07 | 3.9 | 1 | C[C@]12CC[C@@H]3c4ccc(O)cc4CC[C@H]3[C@@H]1CC[C@@]2(O)C#CCCO
0.021 | 0.94 | 0.21 | C[C@]12CC[C@@H]3c4ccc(O)cc4CC[C@H]3[C@@H]1CC[C@@]2(O)CCCOC(=O)CBr

Second part, the compound before the results:

Compound | RAC app [1] | RAC app [2] | RAC app [3]
C[C@]12CC[C@@H]3c4ccc(O)cc4CC[C@H]3[C@@H]1CC[C@@]2(O)CC1CO1 (stereo in doubt; 6b) | < 0.017 | 3.9 | 0.2
C[C@]12CC[C@@H]3c4ccc(O)cc4CC[C@H]3[C@@H]1CC[C@@]2(O)C#CCCCCCCO | 0.4 | 6.5 | 3.4
C[C@]12CC[C@@H]3c4ccc(O)cc4CC[C@H]3[C@@H]1CC[C@@]2(O)C#CCCOC(=O)CBr | 0.066 | 2 | 0.79
C[C@]12CC[C@@H]3c4ccc(O)cc4CC[C@H]3[C@@H]1CC[C@@]2(O)CC1CO1 (stereo in doubt; 6a) | 0.044 | 12 | 1.3
